Patent US20240041877A1, “DOSAGE REGIME AND METHOD FOR TREATING PULMONARY ARTERIAL HYPERTENSION” (Altavant Sciences GmbH, priority 2019, published 2024)

Test: Study KAR5585-101 Part 1 (SAD): plasma pharmacokinetics after a single oral dose of KAR5585, fasting and fed (incl. dose proportionality and food effect)
Details: for AUC(0-inf) / AUC / concentration at 12 h / Cmax / AUC(0-t) / half-life / Tmax: human, plasma, po; for AUC: AUC0-tau
[1] = 400 mg, Geometric Mean, Cohort 3A (Fasting), 400 mg KAR5585 single oral dose, fasting
[2] = 400 mg, Geometric Mean, Cohort 3B (Fed), 400 mg KAR5585 single oral dose, fed
[3] = 400 mg, KAR5417 after 400 mg KAR5585 single oral, fasted, Cohort 3A, Geo. Mean
[4] = 400 mg, KAR5417 after 400 mg KAR5585 single oral, fasted, Cohort 3A, Mean
[5] = 400 mg, KAR5417 after 400 mg KAR5585 single oral, fed, Cohort 3B, Geo. Mean
[6] = 400 mg, KAR5417 after 400 mg KAR5585 single oral, fed, Cohort 3B, Mean
[7] = 700 mg, KAR5417 after 700 mg KAR5585 single oral, fasted, Cohort 4, Geo. Mean
[8] = 700 mg, KAR5417 after 700 mg KAR5585 single oral, fasted, Cohort 4, Mean
[9] = 1200 mg, KAR5417 after 1200 mg KAR5585 single oral, fasted, Cohort 5, Geo. Mean
[10] = 1200 mg, KAR5417 after 1200 mg KAR5585 single oral, fasted, Cohort 5, Mean
[11] = 2000 mg, KAR5417 after 2000 mg KAR5585 single oral, fasted, Cohort 6, Geo. Mean
[12] = 2000 mg, KAR5417 after 2000 mg KAR5585 single oral, fasted, Cohort 6, Mean

Description: Food effect was to be evaluated in Part 1, Period 2. Part 2 was permitted to begin before Part 1 was completed and, in each part, the data from each dose Cohort were to be reviewed for safety before the next dose Cohort was enrolled.
Part 1 had 6 Cohorts of 12 subjects each (for a total of 72 subjects) and Part 2 had 4 Cohorts of 12 subjects each (for a total of 48 subjects). In Part 1, the 12 subjects in Cohort 3 (400 mg)were studied twice, once under fasting conditions (Period 1) and once under fed conditions (Period 2) for food-effect assessment.
Pharmacokinetic data were to be summarized descriptively.

Nc1nc(O[C@H](c2ccc(Cl)cc2-c2ccccc2)C(F)(F)F)cc(N2CCC3(CC2)CN[C@H](C(=O)O)C3)n1 [KAR5417, (S)-8-(2-amino-6-((R)-1-(5-chloro-[1,1T-biphenyl]-2-yl)-2,2,2-trifluoroeth-oxy)pyrimidin-4-yl)-2,8-diazaspiro[4.5]decane-3-carboxylic acid]
AUC(0-inf) (400 mg, AUC0-inf, Geometric Mean, Cohort 3A (Fasting), 400 mg KAR5585 single oral dose, fasting): 3280 ng·h/mL | AUC(0-inf) (400 mg, AUC0-inf, Geometric Mean, Cohort 3B (Fed), 400 mg KAR5585 single oral dose, fed): 6630 ng·h/mL | AUC [1]: 3120 ng·h/mL | AUC [2]: 6360 ng·h/mL | AUC [3]: 3120 ng·h/mL | AUC [4]: 3500 ng·h/mL | AUC [5]: 6360 ng·h/mL | AUC [6]: 6440 ng·h/mL | AUC(0-inf) (400 mg, AUC0-∞, KAR5417 after 400 mg KAR5585 single oral, fasted, Cohort 3A, Geo. Mean): 3280 ng·h/mL | AUC(0-inf) (400 mg, AUC0-∞, KAR5417 after 400 mg KAR5585 single oral, fasted, Cohort 3A, Mean): 3650 ng·h/mL | AUC(0-inf) (400 mg, AUC0-∞, KAR5417 after 400 mg KAR5585 single oral, fed, Cohort 3B, Geo. Mean): 6630 ng·h/mL | AUC(0-inf) (400 mg, AUC0-∞, KAR5417 after 400 mg KAR5585 single oral, fed, Cohort 3B, Mean): 6710 ng·h/mL | concentration at 12 h (400 mg, C12, KAR5417 after 400 mg KAR5585 single oral, fasted, Cohort 3A, Geo. Mean): 75.2 ng/mL | concentration at 12 h (400 mg, C12, KAR5417 after 400 mg KAR5585 single oral, fasted, Cohort 3A, Mean): 82.5 ng/mL | concentration at 12 h (400 mg, C12, KAR5417 after 400 mg KAR5585 single oral, fed, Cohort 3B, Geo. Mean): 165 ng/mL | concentration at 12 h (400 mg, C12, KAR5417 after 400 mg KAR5585 single oral, fed, Cohort 3B, Mean): 169 ng/mL | Cmax [1]: 444 ng/mL | Cmax [2]: 831 ng/mL | Cmax [3]: 444 ng/mL | Cmax [4]: 485 ng/mL | Cmax [5]: 831 ng/mL | Cmax [6]: 860 ng/mL | AUC(0-t) (400 mg, Plasma AUC0-96, KAR5417 in plasma, 400 mg (fasted) KAR5585 single oral dose, mean): 3630 ng·h/mL | AUC(0-t) (400 mg, Plasma AUC0-96, KAR5417 in plasma, 400 mg (fed) KAR5585 single oral dose, mean): 6590 ng·h/mL | half-life (400 mg, t1/2, KAR5417 after 400 mg KAR5585 single oral, fasted, Cohort 3A, Geo. Mean): 9.29 h | half-life (400 mg, t1/2, KAR5417 after 400 mg KAR5585 single oral, fasted, Cohort 3A, Mean): 11.3 h | half-life (400 mg, t1/2, KAR5417 after 400 mg KAR5585 single oral, fed, Cohort 3B, Geo. Mean): 19.8 h | half-life (400 mg, t1/2, KAR5417 after 400 mg KAR5585 single oral, fed, Cohort 3B, Mean): 20.5 h | Tmax (400 mg, tmax, KAR5417 after 400 mg KAR5585 single oral, fasted, Cohort 3A, Median): 4 h | Tmax (400 mg, tmax, KAR5417 after 400 mg KAR5585 single oral, fed, Cohort 3B, Median): 4 h | AUC(0-t) (700 mg, AUC0-12, KAR5417 after 700 mg KAR5585 single oral, fasted, Cohort 4, Geo. Mean): 3050 ng·h/mL | AUC(0-t) (700 mg, AUC0-12, KAR5417 after 700 mg KAR5585 single oral, fasted, Cohort 4, Mean): 4350 ng·h/mL | AUC(0-t) (700 mg, AUC0-24, KAR5417 after 700 mg KAR5585 single oral, fasted, Cohort 4, Geo. Mean): 3720 ng·h/mL | AUC(0-t) (700 mg, AUC0-24, KAR5417 after 700 mg KAR5585 single oral, fasted, Cohort 4, Mean): 5310 ng·h/mL | AUC [7]: 3870 ng·h/mL | AUC [8]: 5840 ng·h/mL | AUC(0-inf) (700 mg, AUC0-∞, KAR5417 after 700 mg KAR5585 single oral, fasted, Cohort 4, Geo. Mean): 4170 ng·h/mL | AUC(0-inf) (700 mg, AUC0-∞, KAR5417 after 700 mg KAR5585 single oral, fasted, Cohort 4, Mean): 6020 ng·h/mL | concentration at 12 h (700 mg, C12, KAR5417 after 700 mg KAR5585 single oral, fasted, Cohort 4, Geo. Mean): 93.8 ng/mL | concentration at 12 h (700 mg, C12, KAR5417 after 700 mg KAR5585 single oral, fasted, Cohort 4, Mean): 144 ng/mL | Cmax [7]: 544 ng/mL | Cmax [8]: 778 ng/mL | AUC(0-t) (700 mg, Plasma AUC0-96, KAR5417 in plasma, 700 mg KAR5585 single oral dose, mean): 5990 ng·h/mL | half-life (700 mg, t1/2, KAR5417 after 700 mg KAR5585 single oral, fasted, Cohort 4, Mean): 13.5 h | Tmax (700 mg, tmax, KAR5417 after 700 mg KAR5585 single oral, fasted, Cohort 4, Median): 4 h | AUC(0-t) (1200 mg, AUC0-12, KAR5417 after 1200 mg KAR5585 single oral, fasted, Cohort 5, Geo. Mean): 4580 ng·h/mL | AUC(0-t) (1200 mg, AUC0-12, KAR5417 after 1200 mg KAR5585 single oral, fasted, Cohort 5, Mean): 5350 ng·h/mL | AUC(0-t) (1200 mg, AUC0-24, KAR5417 after 1200 mg KAR5585 single oral, fasted, Cohort 5, Geo. Mean): 5810 ng·h/mL | AUC(0-t) (1200 mg, AUC0-24, KAR5417 after 1200 mg KAR5585 single oral, fasted, Cohort 5, Mean): 6790 ng·h/mL | AUC [9]: 6580 ng·h/mL | AUC [10]: 7700 ng·h/mL | AUC(0-inf) (1200 mg, AUC0-∞, KAR5417 after 1200 mg KAR5585 single oral, fasted, Cohort 5, Geo. Mean): 6880 ng·h/mL | AUC(0-inf) (1200 mg, AUC0-∞, KAR5417 after 1200 mg KAR5585 single oral, fasted, Cohort 5, Mean): 7970 ng·h/mL | concentration at 12 h (1200 mg, C12, KAR5417 after 1200 mg KAR5585 single oral, fasted, Cohort 5, Geo. Mean): 175 ng/mL | concentration at 12 h (1200 mg, C12, KAR5417 after 1200 mg KAR5585 single oral, fasted, Cohort 5, Mean): 213 ng/mL | Cmax [9]: 764 ng/mL | Cmax [10]: 896 ng/mL | AUC(0-t) (1200 mg, Plasma AUC0-96, KAR5417 in plasma, 1200 mg KAR5585 single oral dose, mean): 7910 ng·h/mL | half-life (1200 mg, t1/2, KAR5417 after 1200 mg KAR5585 single oral, fasted, Cohort 5, Geo. Mean): 14 h | half-life (1200 mg, t1/2, KAR5417 after 1200 mg KAR5585 single oral, fasted, Cohort 5, Mean): 14.9 h | Tmax (1200 mg, tmax, KAR5417 after 1200 mg KAR5585 single oral, fasted, Cohort 5, Median): 6 h | AUC(0-t) (2000 mg, AUC0-12, KAR5417 after 2000 mg KAR5585 single oral, fasted, Cohort 6, Geo. Mean): 6550 ng·h/mL | AUC(0-t) (2000 mg, AUC0-12, KAR5417 after 2000 mg KAR5585 single oral, fasted, Cohort 6, Mean): 6910 ng·h/mL | AUC(0-t) (2000 mg, AUC0-24, KAR5417 after 2000 mg KAR5585 single oral, fasted, Cohort 6, Geo. Mean): 8520 ng·h/mL | AUC(0-t) (2000 mg, AUC0-24, KAR5417 after 2000 mg KAR5585 single oral, fasted, Cohort 6, Mean): 9080 ng·h/mL | AUC [11]: 9880 ng·h/mL | AUC [12]: 10600 ng·h/mL | AUC(0-inf) (2000 mg, AUC0-∞, KAR5417 after 2000 mg KAR5585 single oral, fasted, Cohort 6, Geo. Mean): 10200 ng·h/mL | AUC(0-inf) (2000 mg, AUC0-∞, KAR5417 after 2000 mg KAR5585 single oral, fasted, Cohort 6, Mean): 10900 ng·h/mL | concentration at 12 h (2000 mg, C12, KAR5417 after 2000 mg KAR5585 single oral, fasted, Cohort 6, Geo. Mean): 280 ng/mL | concentration at 12 h (2000 mg, C12, KAR5417 after 2000 mg KAR5585 single oral, fasted, Cohort 6, Mean): 354 ng/mL | Cmax [11]: 1030 ng/mL | Cmax [12]: 1080 ng/mL | AUC(0-t) (2000 mg, Plasma AUC0-96, KAR5417 in plasma, 2000 mg KAR5585 single oral dose, mean): 10700 ng·h/mL | half-life (2000 mg, t1/2, KAR5417 after 2000 mg KAR5585 single oral, fasted, Cohort 6, Geo. Mean): 22.1 h | half-life (2000 mg, t1/2, KAR5417 after 2000 mg KAR5585 single oral, fasted, Cohort 6, Mean): 22.6 h | Tmax (2000 mg, tmax, KAR5417 after 2000 mg KAR5585 single oral, fasted, Cohort 6, Median): 5 h | Tmax (median tmax, range across cohorts, single oral 100-2000 mg KAR5585, fasting cohorts): 3 to 6 h | time by which all subjects had measurable concentrations (postdose, single oral KAR5585): ≤ 0.25 h | time concentrations remained above the LLOQ (single 100 mg KAR5585, fasting): up to 12 hours | time concentrations remained above the LLOQ (single 200 mg KAR5585, fasting): ≤ 24 h | time concentrations remained above the LLOQ / measurable (single 400 mg KAR5585, fasting): ≤ 36 h | time concentrations remained above the LLOQ (single 700 mg KAR5585, fasting): ≤ 48 h | time concentrations remained above the LLOQ (single 1200 mg KAR5585, fasting): ≤ 48 h | time concentrations remained above the LLOQ (single 2000 mg KAR5585, fasting): ≤ 72 h | dose proportionality of AUC0-inf and Cmax (power model, 95% CI of slope) (single dose range 100 to 2000 mg KAR5585, fasting): dose proportionality was concluded | plasma concentrations of KAR5417 relative to plasma concentrations of KAR5585 (single oral KAR5585, fasting): approximately 10 fold
